The target of one data set is IRAK1 (Homo sapiens (Human), UniProt P51617). The data set is described as follows: IRAK1 enzymatic assay (ADP-Glo luminescence). The class given is biochemical. As to the method:
In this assay, IRAK1 hydrolyses ATP and autophosphorylates. Measurement of IRAK-1 inhibition is performed in 384-well format based on luminescence assay (ADP-Glo™ Kinase Assay from Promega). Purified human recombinant IRAK1 ([…]) and serial diluted compounds in DMSO (range of concentration from 10 μM to 0.5 nM) or controls (1% DMSO) are incubated for 15 minutes at RT in assay buffer containing 50 mM Hepes pH 7.0, Fatty acid-free BSA 0.1%, Dithiothreitol (DTT) 2 mM, MgCl2 10 mM, EGTA 0.5 mM, Triton X-100 0.01%. The kinase reaction is then initiated by the addition of ATP at a concentration of 1μM. After 2 hours of incubation at RT, the reaction is stopped and the unconsumed ATP depleted by the addition of ADP-Glo™ Reagent according to supplier instructions. After 40 minutes of incubation at RT, the Kinase Detection Reagent is then added to the assay plate according to supplier instructions. After 20 minutes of incubation at RT, the luminescence signal is measured with a luminometer (PerkinElmer Envision or equivalent reader).

Another data set concerns the target IRAK4 (Homo sapiens (Human), UniProt Q9NWZ3). The data set is described as follows: IRAK4 enzymatic assay (ADP-Glo luminescence). The class given is biochemical. Particulars: human purified recombinant His-TEV-IRAK4 (1-460), ATP 2 μM, STK1-biotin peptide 300 nM. Here is the method: IRAK4 is a human purified recombinant enzyme (His-TEV-IRAK4 (1-460)).
In this assay, IRAK4 hydrolyses ATP, autophosphorylates and phosphorylates a Serine/Threonine generic peptidic substrate (STK: 61ST1BLC from CisBio International). Measurement of IRAK-4 inhibition is performed in 384-well format based on a luminescence assay (ADP-Glo™ Kinase Assay from Promega). Purified human recombinant IRAK4 (0.3 μg/ml) and serial diluted compounds in DMSO (range of concentration from 10 μM to 0.5 nM) or controls (1% DMSO) are incubated for 15 minutes at RT in assay buffer containing 50 mM Hepes pH 7.0, Fatty acid-free BSA 0.1%, Dithiothreitol (DTT) 2 mM, MgCl2 10 mM, EGTA 0.5 mM, Triton X-100 0.01%, MnCl2 5 mM. The kinase reaction is then initiated by the addition of ATP (2 μM) and the peptidic substrate STK1-biotin peptide (300 nM). After 2 hours of incubation at RT, the reaction is stopped and the unconsumed ATP depleted by the addition of ADP-Glo™ Reagent according to supplier instructions. After 40 minutes of incubation at RT, the Kinase Detection Reagent is then added to the assay plate according to supplier instructions. After 20 minutes of incubation at RT, the luminescence signal is measured with a plate-reading luminometer (PerkinElmer Envision or equivalent reader).
On the technique in general: In ADP-Glo the light output rises with the ADP produced.

The mark [1] stands for this setting: human purified recombinant His-TEV-IRAK1 (194-712), ATP 1 μM, read-out: IRAK1 IC50.

This passage reports IC50 and ring closure, yield after HPLC results from US9815836B2, “Macrocyclic compounds as IRAK1/4 inhibitors and uses thereof” (Merck Patent GmbH, priority 2015, dated 2017).

pIC50: −log10 of the molar value. Read-outs that look alike come from different tables or passages of the source. Bounds are passed on as bounds.

The term pIC50 denotes the IC50 on a negative log10 scale, so that one unit is a factor of ten.

IRAK4, sequence (Q9NWZ3 whole entry): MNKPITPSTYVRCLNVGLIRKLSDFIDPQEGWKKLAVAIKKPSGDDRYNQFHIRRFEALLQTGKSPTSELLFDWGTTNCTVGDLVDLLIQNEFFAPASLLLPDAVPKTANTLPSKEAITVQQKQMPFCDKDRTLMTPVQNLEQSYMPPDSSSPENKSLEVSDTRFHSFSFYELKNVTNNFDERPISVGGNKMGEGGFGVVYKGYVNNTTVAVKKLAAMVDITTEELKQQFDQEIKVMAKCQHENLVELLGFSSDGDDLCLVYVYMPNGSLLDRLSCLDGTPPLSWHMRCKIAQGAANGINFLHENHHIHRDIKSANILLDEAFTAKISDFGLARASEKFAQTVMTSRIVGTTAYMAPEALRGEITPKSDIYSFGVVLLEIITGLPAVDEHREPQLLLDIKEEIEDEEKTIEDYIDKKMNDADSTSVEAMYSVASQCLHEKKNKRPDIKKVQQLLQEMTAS
IRAK1, sequence (P51617 194-712): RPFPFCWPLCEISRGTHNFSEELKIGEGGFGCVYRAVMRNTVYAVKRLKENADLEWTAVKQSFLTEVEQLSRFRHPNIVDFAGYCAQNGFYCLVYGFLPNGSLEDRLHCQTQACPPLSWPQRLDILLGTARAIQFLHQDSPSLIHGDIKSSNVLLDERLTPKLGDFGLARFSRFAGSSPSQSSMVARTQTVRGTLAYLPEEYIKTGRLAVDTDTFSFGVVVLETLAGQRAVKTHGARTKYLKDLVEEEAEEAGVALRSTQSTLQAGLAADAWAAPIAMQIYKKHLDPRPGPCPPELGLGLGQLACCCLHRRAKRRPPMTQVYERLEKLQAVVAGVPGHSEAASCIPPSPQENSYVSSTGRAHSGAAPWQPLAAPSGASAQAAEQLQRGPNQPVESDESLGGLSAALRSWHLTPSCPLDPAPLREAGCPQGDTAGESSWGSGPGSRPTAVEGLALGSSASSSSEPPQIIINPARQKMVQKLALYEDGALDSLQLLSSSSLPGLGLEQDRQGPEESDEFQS

Turning to `O=C1Nc2cn(C3CCOCC3)nc2C(=O)NCCCCCn2cc(cn2)-c2cccc1c2` [Compound 6, 15-(oxan-4-yl)-4,5,11,14,15,18-hexaazatetracyclo[18.3.1.1^2,^5.0^13,^1^7]pentacosa-1(23),2(25),3,13,16,20(24),21-heptaene-12,19-dione], the pIC50 on IRAK1 (setting [1]) and on IRAK4 was less than 5.30 throughout.
`Cn1cc2c(n1)C(=O)NCC/C=C\CCn1cc(cn1)-c1cccc(n1)C(=O)N2` [Compound 27, (8Z)-16-methyl-4,5,12,15,16,19,25-heptaazatetracyclo[19.3.1.1^2,^5.0^1^4,^1^8]hexacosa-1(24),2(26),3,8,14,17,21(25),22-octaene-13,20-dione]: the negative logarithm of the IC50 (pIC50) is 6.00 to 7.00 against IRAK1 and greater than 7.00 at IRAK4.
In the case of `Cn1cc2c(n1)C(=O)NC/C=C\CCCn1cc(cn1)-c1cccc(n1)C(=O)N2` [Compound 30, (9Z)-16-methyl-4,5,12,15,16,19,25-heptaazatetracyclo[19.3.1.1^2,^5.0^1^4,^1^8]hexacosa-1(24),2(26),3,9,14,17,21(25),22-octaene-13,20-dione], the results for the pIC50 against IRAK1 and at IRAK4 were 6.00 to 7.00 and greater than 7.00, respectively.
With `Cn1cc2c(n1)C(=O)NCCCC#CCn1cc(cn1)-c1cccc(n1)C(=O)N2` [Compound 38, 16-methyl-4,5,12,15,16,19,25-heptaazatetracyclo[19.3.1.1^2,^5.0^1^4,^1^8]hexacosa-1(24),2(26),3,14,17,21 (25),22-heptaen-7-yne-13,20-dione], the negative logarithm of the IC50 (pIC50) on IRAK1 (setting [1]) and on IRAK4 was greater than 7.00 each time.
With `CN1CCNC(=O)c2nn(C)cc2NC(=O)c2cccc(n2)-c2cnn(c2)CCOC1=O` [Compound 5, 10,17-dimethyl-8-oxa-4,5,10,13,16,17,20,26-octaazatetracyclo[20.3.1.1^2,^5.0^1^5,^1^9]heptacosa-1(25),2(27),3,15,18,22(26),23-heptaene-9,14,21-trione], the pIC50 at IRAK1 (setting [1]) and at IRAK4 was greater than 7.00 in each case.
As to `O=C1Nc2cn(C3CCOCC3)nc2C(=O)NCCOCCn2cc(cn2)-c2cccc1c2` [Compound 20, 15-(oxan-4-yl)-8-oxa-4,5,11,14,15,18-hexaazatetracyclo[18.3.1.1^2,^5.0^13,^1^7]pentacosa-1(23),2(25),3,13,16,20(24),21-heptaene-12,19-dione], the ring closure, yield after HPLC (from NCCOCCn1cc(-c2cccc(C(=O)Nc3cn(C4CCOCC4)nc3C(=O)[O-])c2)cn1, amide bond, 17-membered ring, BOP/DIEA, DMF, 20.7 mM) was found to be 21.8%. Also, the pIC50 on IRAK1 (setting [1]) and at IRAK4 was less than 5.30 each time.
With `Cn1cc2c(n1)C(=O)NCCCCn1cc(cn1)-c1cccc(n1)C(=O)N2` [Compound 4, 4-methyl-4,5,10,13,14, 17,23-heptaazatetracyclo[17.3.1.1^2,^5.0^12,^1^6]tetracosa-1(22),2(24),3,12,15,19(23),20-heptaene-11,18-dione], the pIC50 against IRAK1 and on IRAK4 was 5.30 to 6.00 throughout.
Consider `O=C1Nc2cn(C3CCN(CCO)CC3)nc2C(=O)NCCCCCCn2cc(cn2)-c2cccc1n2` [Compound 22, 16-[1-(2-hydroxyethyl)piperidin-4-yl]-4,5,12,15,16,19,25-heptaazatetracyclo[19.3.1.1^2,^5.0^1^4,^1^8]hexacosa-1 (24),2(26),3,14,17,21(25),22-heptaene-13,20-dione], for which the negative logarithm of the IC50 (pIC50) at IRAK1 was 6.00 to 7.00; on IRAK4 it was greater than 7.00.
Turning to `CS(=O)(=O)N1CCC(n2cc3c(n2)C(=O)NCCCCCCn2cc(cn2)-c2cccc(n2)C(=O)N3)CC1` [Compound 17, 6-(1-methanesulfonylpiperidin-4-yl)-4,5,12,15,16,19,25-heptaazatetracyclo[19.3.1.1^2,^5.0^1^4,^1^8]hexacosa-1(24),2(26),3,14,17,21(25),22-heptaene-13,20-dione], the negative-log IC50 (pIC50) was 6.00 to 7.00 on IRAK1 and greater than 7.00 on IRAK4.
On to `Cn1cc2c(n1)C(=O)NCCCC(O)C(O)Cn1cc(cn1)-c1cccc(n1)C(=O)N2` (stereo not shown) [Compound 32, 7,8-dihydroxy-16-methyl-4,5,12,15,16,19,25-heptaazatetracyclo[19.3.1.1^2,^5.0^1^4,^1^8]hexacosa-1(24),2(26),3,14,17,21(25),22-heptaene-13,20-dione], for which the negative-log IC50 (pIC50) against IRAK1 was 6.00 to 7.00; on IRAK4 it was greater than 7.00.
Taken in the same sequence, the figures for `Cn1cc2c(n1)C(=O)NCCCCCCn1cc(cn1)-c1cccc(c1)C(=O)N2` [Compound 1, 16-methyl-4,5,12,15,16,19-hexaazatetracyclo[19.3.1.1^2,^5.0^1^4,^1^8]hexacosa-1(24),2(26),3,14,17,21(25),22-heptaene-13,20-dione] were 6.00 to 7.00 and greater than 7.00.
For `O=C1Nc2cn(C3CCOCC3)nc2C(=O)NCCCCCCn2cc(cn2)-c2cccc1n2` [Compound 12, 16-(oxan-4-yl)-4,5,12,15,16,19,25-heptaazatetracyclo[19.3.1.1^2,^5.0^1^4,^1^8]hexacosa-1(24),2(26),3,14,17,21 (25),22-heptaene-13,20-dione], the pIC50 against IRAK1 was 6.00 to 7.00; on IRAK4, greater than 7.00.
Take `Cn1cc2c(n1)C(=O)NCC/C=C/CCn1cc(cn1)-c1cccc(n1)C(=O)N2` [Compound 28, (8E)-16-methyl-4,5,12,15,16,19,25-heptaazatetracyclo[19.3.1.1^2,^5.0^1^4,^1^8]hexacosa-1(24),2(26),3,8,14,17,21(25),22-octaene-13,20-dione]: the pIC50 at IRAK1 was 6.00 to 7.00; at IRAK4 it was greater than 7.00.
In turn, `Cn1cc(NC(=O)c2cccc(-c3cnn(CCCl)c3)n2)c(C(=O)NC2CCNC[C@H]2O)n1` (stereo partly shown) yielded a ring closure, yield after HPLC (the molecule shown is the open-chain precursor, multicomponent bond, 20-membered ring, Cs2CO3/KI, microwave, DMSO, 22.0 mM, 110.0 °C) of 23.6%.
With `CN1CCCNC(=O)c2nn(C)cc2NC(=O)c2cccc(n2)-c2cnn(c2)CC1` [Compound 11, 8,16-dimethyl-4,5,8,12,15,16,19,25-octaazatetracyclo[19.3.1.1^2,^5.0^1^4,^1^8]hexacosa-1(24),2(26),3,14,17,21(25),22-heptaene-13,20-dione], the results for the negative logarithm of the IC50 (pIC50) on IRAK1 and at IRAK4 were 5.30 to 6.00 and greater than 7.00, respectively.
As to `Cn1cc2c(n1)C(=O)NCC1CN(CCO1)CCn1cc(cn1)-c1cccc(n1)C(=O)N2` (stereo not shown) [Compound 7, 18-methyl-11-oxa-4,5,8,14,17,18,21,27-octaazapentacyclo[21.3.1.1^2,^5.1^8,^12.0^1^6,^2^0]nonacosa-1 (26),2(29),3,16,19,23(27),24-heptaene-15,22-dione], the negative logarithm of the IC50 (pIC50) is 5.30 to 6.00 against IRAK1 and greater than 7.00 at IRAK4.
Consider `O=C1Nc2cn(C3CCOCC3)nc2C(=O)NCCS(=O)(=O)CCCn2cc(cn2)-c2cccc1n2` [Compound 15, 16-(oxan-4-yl)-9λ^6-thia-4,5,12,15,16,19,25-heptaazatetracyclo[19.3.1.1^2,^5.0^1^4,^1^8]hexacosa-1(24),2(26),3,14,17,21(25),22-heptaene-9,9,13,20-tetrone], for which the pIC50 on IRAK1 was 6.00 to 7.00; at IRAK4 it was greater than 7.00.
